Consider 5 compounds from ChEMBL document CHEMBL3137667, “[Drug-induced liver injury; fourteenth updated edition of the bibliographic database of liver injuries and related drugs]” (Gastroenterol Clin Biol, 2004).

For data set [1] the following is noted: human.
The conditions of data set [2]: human. This is another data set of the same source.
The conditions of data set [3]: human, serum, 4383 h.
The nature of data set [4]: Highest frequency of moderate liver toxicity observed during clinical trials, expressed as a percentage. [column '% BIOL' in source]. The note with it: human.
The nature of data set [5]: Highest frequency of acute liver toxicity observed during clinical trials, expressed as a percentage. [column '% AIGUE' in source]. Particulars: human.
The conditions of data set [6]: human. This is another data set of the same source.
The conditions of data set [7]: human. This is another data set of the same source.
The conditions of data set [8]: human, serum.
The conditions of data set [9]: human. The source holds these as a separate data set.
For data set [10] the following is noted: human. The source holds these as a separate data set.
For data set [11] the following is noted: human, serum. This is another data set of the same source.
For data set [12] the following is noted: human. The source holds these as a separate data set.
The conditions of data set [13]: human. This is another data set of the same source.
The conditions of data set [14]: human. The source holds these as a separate data set.
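Throughout, for Hepatotoxicity (association with vascular disease): count of indexed literature references reporting vascular liver injury in humans, e.g. peliosis hepatitis, hepatic veno-occlusive disease or Budd-Chiari syndrome.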
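Throughout, for Hepatotoxicity (benign tumour): value is a count of indexed literature references citing a benign tumour confirmed by histopathology.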
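Throughout, for Hepatotoxicity (choleostasis): human cholestatic liver injury, shown by histopathology or by peak ALT or AST elevation over alkaline phosphatase ratio below 2, value counts indexed literature reports.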
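Throughout, for Hepatotoxicity (chronic liver disease): chronic liver injury confirmed by histopathology or persistently raised serum aminotransferase activity beyond 6 months, value given as the count of indexed literature references.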
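Throughout, for Hepatotoxicity (cirrhosis): value is a count of indexed literature references reporting cirrhosis confirmed by histopathology.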
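Throughout, for Hepatotoxicity (cytolytic): human cytolytic liver injury, shown by histopathology or by a ratio above 5 of peak ALT or AST elevation to alkaline phosphatase elevation, value counts indexed references.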
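Throughout, for Hepatotoxicity (granulomatous hepatitis): value is a count of indexed literature references reporting granulomatous liver disease confirmed by histopathology.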
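Throughout, for Hepatotoxicity (malignant tumour): malignant tumour confirmed by histopathology, value gives the count of indexed literature references reporting it.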
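Throughout, for Hepatotoxicity (severe hepatitis): human clinical data: severe hepatitis, meaning potentially life-threatening liver failure or clinically observed cases, the value counts how many indexed literature references report it.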
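Throughout, for Hepatotoxicity (steatosis): steatosis confirmed by histopathology, value is the count of indexed references.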

Turning to `O=C(O)c1ccccc1Nc1cccc(C(F)(F)F)c1` [FLUFENAMIC ACID], the “Hepatotoxicity (cytolytic)” value in data set [1] is on record as 0. The “Hepatotoxicity (choleostasis)” value in data set [2] came to 0. In addition, in data set [3], the “Hepatotoxicity (chronic liver disease)” value was 0. Also, the “Hepatotoxicity (moderate)” value is 0% in [4] and 1 in data set [11]. For the same compound, the “Hepatotoxicity (acute)” value in data set [5] worked out at 0%; in data set [8] it was 0. For the same compound, in data set [6], the “Hepatotoxicity (association with vascular disease)” value stood at 0. The “Hepatotoxicity (steatosis)” value in data set [7] was determined as 0. In data set [9], the “Hepatotoxicity (benign tumour)” value came to 0. For the same compound, the “Hepatotoxicity (malignant tumour)” value in data set [10] worked out at 0. Moreover, in data set [12], the “Hepatotoxicity (granulomatous hepatitis)” value was 0. For the same compound, the “Hepatotoxicity (severe hepatitis)” value in [13] is 0. For the same compound, in data set [14], the “Hepatotoxicity (cirrhosis)” value is 0.
As to `COCc1c(C(=O)OC(C)C)ncc2[nH]c3ccc(OCc4ccccc4)cc3c12` [ABECARNIL], in data set [1], the “Hepatotoxicity (cytolytic)” value was 0. The “Hepatotoxicity (choleostasis)” value in [2] is on record as 0. Further, the “Hepatotoxicity (chronic liver disease)” value in [3] is 0. Also, the figures for the “Hepatotoxicity (moderate)” value in data set [4] and in data set [11] were 8% and 1, respectively. For the same compound, the “Hepatotoxicity (acute)” value is listed as 0% in data set [5] and 0 in data set [8]. For the same compound, the “Hepatotoxicity (association with vascular disease)” value in data set [6] is given as 0. In addition, in data set [7], the “Hepatotoxicity (steatosis)” value is reported as 0. In data set [9], the “Hepatotoxicity (benign tumour)” value was 0. Also, the “Hepatotoxicity (malignant tumour)” value in [10] is recorded as 0. For the same compound, the “Hepatotoxicity (granulomatous hepatitis)” value in data set [12] amounted to 0. Also, the “Hepatotoxicity (severe hepatitis)” value in data set [13] came out at 0. The “Hepatotoxicity (cirrhosis)” value in [14] stood at 0.
Turning to `C#CC(O)(/C=C/Cl)CC` (stereo not given) [ETHCHLORVYNOL], the “Hepatotoxicity (cytolytic)” value in data set [1] is on record as 0. In addition, the “Hepatotoxicity (choleostasis)” value in data set [2] is on record as 2. The “Hepatotoxicity (chronic liver disease)” value in data set [3] is listed as 0. For the same compound, the entries for the “Hepatotoxicity (moderate)” value in data set [4] and in [11] were 0% and 0, respectively. The “Hepatotoxicity (acute)” value worked out at 0% in data set [5] and 2 in data set [8]. Also, in [6], the “Hepatotoxicity (association with vascular disease)” value came to 0. Also, the “Hepatotoxicity (steatosis)” value in data set [7] was found to be 0. Besides, in data set [9], the “Hepatotoxicity (benign tumour)” value is reported as 0. In [10], the “Hepatotoxicity (malignant tumour)” value is given as 0. The “Hepatotoxicity (granulomatous hepatitis)” value in [12] is 0. For the same compound, in data set [13], the “Hepatotoxicity (severe hepatitis)” value is 0. Further, the “Hepatotoxicity (cirrhosis)” value in data set [14] is reported as 0.
In the case of `COC(=O)Nc1nc2cc(C(=O)c3ccc(F)cc3)ccc2[nH]1` [FLUBENDAZOLE], the “Hepatotoxicity (cytolytic)” value in [1] is 1. In addition, the “Hepatotoxicity (choleostasis)” value in [2] is reported as 0. Moreover, in data set [3], the “Hepatotoxicity (chronic liver disease)” value came to 0. The figures for the “Hepatotoxicity (moderate)” value in data set [4] and in data set [11] were 6% and 1, respectively. The “Hepatotoxicity (acute)” value in data set [5] worked out at 0%; in data set [8], 1. Further, the “Hepatotoxicity (association with vascular disease)” value in data set [6] turned out to be 0. Also, the “Hepatotoxicity (steatosis)” value in [7] worked out at 0. Also, the “Hepatotoxicity (benign tumour)” value in data set [9] was determined as 0. Besides, the “Hepatotoxicity (malignant tumour)” value in data set [10] came out at 0. Besides, in [12], the “Hepatotoxicity (granulomatous hepatitis)” value is listed as 0. For the same compound, in data set [13], the “Hepatotoxicity (severe hepatitis)” value was found to be 0. In data set [14], the “Hepatotoxicity (cirrhosis)” value was 0.
For `C[Si](C)(C)c1cccc(C(=O)C(F)(F)F)c1`, in [1], the “Hepatotoxicity (cytolytic)” value worked out at 0. For the same compound, the “Hepatotoxicity (choleostasis)” value in data set [2] is 0. In addition, the “Hepatotoxicity (chronic liver disease)” value in [3] came to 0. Moreover, the “Hepatotoxicity (moderate)” value in [4] is on record as 0%; in data set [11], 2. For the same compound, the “Hepatotoxicity (acute)” value in [5] was 0%; in data set [8], 0. For the same compound, the “Hepatotoxicity (association with vascular disease)” value in data set [6] is listed as 0. In data set [7], the “Hepatotoxicity (steatosis)” value was 0. The “Hepatotoxicity (benign tumour)” value in data set [9] is given as 0. The “Hepatotoxicity (malignant tumour)” value in data set [10] was 0. Also, the “Hepatotoxicity (granulomatous hepatitis)” value in data set [12] came to 0. In data set [13], the “Hepatotoxicity (severe hepatitis)” value was 0. In addition, in data set [14], the “Hepatotoxicity (cirrhosis)” value amounted to 0.
